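Each compound was tested at five concentrations against cells in 96-well plates for 48 hours. TGI is the concentration that stops growth completely.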
What was measured:
Experiment in all cases: NCI-60 cell line screen, 48 h
K-562 leukemia = system: K-562 leukemia
SW-620 colon = system: SW-620 colon
U251 CNS = system: U251 CNS
SK-OV-3 ovarian = system: SK-OV-3 ovarian
HL-60(TB) leukemia = system: HL-60(TB) leukemia
KM12 colon = system: KM12 colon
SK-MEL-5 melanoma = system: SK-MEL-5 melanoma
NCI/ADR-RES ovarian = system: NCI/ADR-RES ovarian
NCI-H226 lung = system: NCI-H226 lung
M14 melanoma = system: M14 melanoma
HCT-15 colon = system: HCT-15 colon
T-47D breast = system: T-47D breast
SNB-19 CNS = system: SNB-19 CNS
HOP-92 NSCLC = system: HOP-92 NSCLC
A549 NSCLC = system: A549 NSCLC
SF-295 CNS = system: SF-295 CNS
HCT-116 colon = system: HCT-116 colon
DU-145 prostate = system: DU-145 prostate
MOLT-4 leukemia = system: MOLT-4 leukemia
HCC-2998 colon = system: HCC-2998 colon
SK-MEL-28 melanoma = system: SK-MEL-28 melanoma
IGROV1 ovarian = system: IGROV1 ovarian
OVCAR-4 ovarian = system: OVCAR-4 ovarian
MALME-3M melanoma = system: MALME-3M melanoma
HS 578T breast = system: HS 578T breast
NCI-H460 lung = system: NCI-H460 lung
NCI-H23 lung = system: NCI-H23 lung
MDA-N = system: MDA-N
EKVX NSCLC = system: EKVX NSCLC
COLO 205 colon = system: COLO 205 colon
RXF 393 renal = system: RXF 393 renal
PC-3 prostate = system: PC-3 prostate
UACC-257 melanoma = system: UACC-257 melanoma
SK-MEL-2 melanoma = system: SK-MEL-2 melanoma
SF-539 CNS = system: SF-539 CNS
SN12C renal = system: SN12C renal
MDA-MB-435 = system: MDA-MB-435
RPMI-8226 leukemia = system: RPMI-8226 leukemia
NCI-H522 lung = system: NCI-H522 lung
MCF7 breast = system: MCF7 breast
A498 renal = system: A498 renal
HOP-62 NSCLC = system: HOP-62 NSCLC
UACC-62 melanoma = system: UACC-62 melanoma
SF-268 CNS = system: SF-268 CNS
786-0 renal = system: 786-0 renal
OVCAR-8 ovarian = system: OVCAR-8 ovarian
MDA-MB-231 breast = system: MDA-MB-231 breast
LOX IMVI melanoma = system: LOX IMVI melanoma
ACHN renal = system: ACHN renal
OVCAR-3 ovarian = system: OVCAR-3 ovarian
SR leukemia = system: SR leukemia
HT29 colon = system: HT29 colon
OVCAR-5 ovarian = system: OVCAR-5 ovarian

Measured: TGI

O=C1C[C@@]23CCC4(CC2CCC[C@H]3O1)OCCO4 (stereo partly drawn)
> 100 µM: all assays above
